The structures appear in SMILES notation.

With `CCCCOCCOCCOC(=O)CCCCC(=O)OCCOCCOCCCC`, the melting point (as a rule, the temperature, or range, at which the solid turns liquid) is -47 °C.

The compound `CCCCCCCCCCC(=O)c1ccccc1` returned a melting point of 28 to 30 °C. In turn, `O=C1C=CC(=O)c2c(O)cccc21` yielded a melting point of 162 °C. The compound `O=C1OC(=O)c2cc(Br)ccc21` returned a melting point of 107 °C.

On to `Clc1cc(Cl)c2c(c1)Oc1cc(Cl)c(Cl)cc1O2`, for which the melting point stood at 194 °C. Then `CCCCCCCCCCCCCCS`, with 7 °C; and `C=NCC#N`, with 129 °C; and `O=C1C2CC=CCC2C(=O)N1SC(Cl)(Cl)Cl` (stereo unspecified), with 178 °C. Then `O=[N+]([O-])CC(Nc1ccccc1)c1cccc(C(C[N+](=O)[O-])Nc2ccccc2)c1` (stereo unspecified), with 127 °C. `O=[N+]([O-])c1cccc2c(/C=N\c3ccccc3)cccc12`: the melting point lay within 83 to 84 °C.

For the compound `Nc1c(C(=O)O)sc2ncccc12`, the melting point was 202 to 204 °C.

Turning to `O=C(c1ccccc1)C1CC1`, the melting point was 7 to 9 °C. Then `CC(C)(C)NC(=O)C1CCC2CC34CCC(CC=C3C=C(O)C=O)C4CCC21C` (stereo unspecified), with 257 °C. `COc1cc([C@@H](O)[C@H](CO)Oc2c(OC)cccc2OC)cc(OC)c1O` returned a melting point of 217 °C. Then `Cn1ccnc1C=O`, with 35 to 39 °C; and `NC(=O)c1cc(F)cc(F)c1`, with 156 °C; and `CC1(C)C=[N+]([O-])C(C)(C)C=[N+]1[O-]`, with 298 to 300 °C.

For `COc1cccc2cc(C(=O)C3CC(C)(c4c(C)cc(C)cc4C)C3)oc12` (stereo unspecified), the melting point lay in the range of 96 to 97 °C. Turning to `COc1ccc(CNC(N)=S)cc1`, the melting point was in the range of 135 to 137 °C. Compound `Cc1cc2c(nn1)CCc1nonc1-2` registered a melting point of 143 to 145 °C. `Cc1nn(C)c(C(=O)O)c1Br`: the melting point lay in the range of 225 to 226 °C. Then `Brc1cccc(Br)n1`, with 119 °C; and `Nc1nnc(C2CC2)[nH]1`, with 128 to 130 °C. Next, `CCCCCCCCCC1(C)N=C(c2ccccc2)C=[N+]1[O-]` (stereo unspecified): 43 to 46 °C; `CC(C)OC(=O)OOC(=O)OC(C)C`: 10 °C; `CSc1nc2ccc(N)cc2s1`: 105 to 107 °C. Next, `CCN1CCN(C(=O)N[C@@H](C(=O)O)c2ccc(O)cc2)C(=O)C1=O`: 205 °C; `N#Cc1ccc(C(F)(F)F)cc1Cl`: 83 °C.

In the case of `Clc1cccc(CBr)c1Cl`, the melting point was in the range of 29 to 32 °C. Compound `CN1CCN(Cc2cccc(CO)c2)CC1` came in with a melting point of 51 to 52 °C. `Cc1ccc(C=C(C#N)C#N)cc1` registered a melting point of 132 to 133 °C. Next, `CCC(C)(O)C(=O)O` (stereo unspecified): 74 °C; `CCCCCOC(=O)COc1cc(N2C(=O)C3=C(CCCC3)C2=O)c(F)cc1Cl`: 89 °C; `CC(=O)c1ccc2c(c1)NC(=O)CO2`: 196 °C. Then `CC1CCC(C)C(C)C1C` (stereo unspecified), with -75 °C; and `COc1cc(-c2n[nH]c(=S)n2/N=C/c2ccccc2O)cc(OC)c1OC`, with 220 to 222 °C; and `CCCCCCCOC(C)=O`, with -50.2 °C. For the compound `CC(=O)CCc1ccc2c(c1)N(C(=O)c1ccccc1)C(C)CC2` (stereo unspecified), the melting point was determined as 74 °C.

Turning to `CN(C)c1ccc(-c2c(C#N)c(N)n(N)c(=O)c2C#N)cc1`, the melting point lay in the range of 328 to 330 °C. Then `O=C(O)c1csc(-c2cccc(Cl)c2Cl)n1`, with 233 to 234 °C; and `COc1cccc(F)c1C=O`, with 59 °C; and `CC(=O)/C(=N\Nc1cc(Cl)ccc1Cl)C(=O)C(F)(F)F`, with 83 to 85 °C. For the compound `CC12CCC3C(CCC4CC5SC5CC43C)C1CCC2O` (stereo unspecified), the melting point was 127 °C. As to `O=C1c2ccc(O)c(O)c2C(=O)c2ccc(O)c(O)c21`, the melting point was 340 °C. In turn, `Cc1c(O)ccc2c1OC(C)(C)CC2=O` yielded a melting point of 181 to 182 °C.

In turn, `CCC(C)(C(N)=O)c1ccccc1` (stereo unspecified) came in with a melting point of 101 °C. Then `CCCCCCC(C)(C)S`, with -43.1 °C; and `O=C(NC(Cc1c[nH]c2ccccc12)C(=O)O)OCc1ccccc1` (stereo unspecified), with 124 °C; and `N/N=C(/C(=O)c1cccc2ccccc12)c1ccccc1`, with 152 °C. Then `Brc1c2ccccc2cc2ccccc12`, with 100 °C; and `O=C(O)c1[nH]c2ccccc2c1Br`, with 185 to 188 °C.

In turn, `c1ccc2c(c1)ccc1c3ccccc3ccc21` returned a melting point of 258 °C. `OC(O)C(F)(F)C(F)(F)C(F)(F)C(F)(F)C(F)(F)C(F)(F)C(F)(F)C(F)(F)F`: the melting point was 91 to 94 °C. Take `CC(C)(C)P(=O)(O)O`: the melting point fell in the range of 188 to 192 °C. In the case of `Clc1ccc2c(Cl)ccnc2c1`, the melting point was found to be 93 °C. Next, `O=C(O)C1CCN(c2nccc(C(F)(F)F)n2)CC1`: 140 to 142 °C; `Nc1c(C(=O)O)cnc2c(C(=O)O)cnn12`: 256 °C; `O=S(=O)(Cl)c1ccc(F)cc1C(F)(F)F`: 50 °C.

For the compound `COc1cc(C(c2ccc(C)s2)c2ccc(C)s2)c([N+](=O)[O-])cc1OC`, the melting point amounted to 120 °C. Then `Oc1ccc2ccccc2c1Cc1c(O)ccc2ccccc12`, with 188 to 190 °C; and `CC1CCC(C(C)C)C(OC(=O)C(C(=O)c2ccccc2)C(=O)c2ccccc2)C1` (stereo unspecified), with 138 °C; and `CC(C)(C)NCC(O)c1ccccc1Cl` (stereo unspecified), with 89 °C. In turn, `Brc1cc2ccc1CCc1ccc(c(Br)c1)CC2` returned a melting point of 251 °C. Turning to `c1cnc2nc[nH]c2c1`, the melting point came out at 148 °C. `CC(C)(C)NCC(O)COc1ccccc1C#N` (stereo unspecified) gave a melting point of 164 °C. In the case of `CC(C)C1=C(O)C(=O)C2=C(CC(O)C3C(C)(C)CCCC23C)C1=O` (stereo unspecified), the melting point was 188 °C. `Cc1ccc(C(=CCN2CCCC2)c2ccccn2)cc1`: the melting point came to 60 °C. `Nc1ncccc1O` had a melting point of 170 to 176 °C.

Take `Clc1cc(Cl)c2oc3cc(Cl)c(Cl)cc3c2c1`: the melting point turned out to be 202 °C.

Turning to `CC(C(=O)O)c1ccc(C(=O)c2ccccc2)s1` (stereo unspecified), the melting point came to 96 °C. Next, `O=C(O)c1ccc(CN2CCCC2)cc1`: 184 to 185 °C.

`C=C[Si](C)(C)O[Si](C)(C)C=C` showed a melting point of -99.7 °C. Then `NNC(=O)N1N=C(c2ccccc2)CCC1=O`, with 166 to 168 °C; and `CC(C)(C)OC(=O)N1CCC(c2nc(C=O)cs2)CC1`, with 91 to 93 °C.

As to `CCn1c(C)nc2ccccc21`, the melting point is 51 °C.

`Nc1csc2nccnc12` registered a melting point of 88 to 89 °C. In turn, `O=[N+]([O-])C(Br)C(Br)c1cccc(C(Br)C(Br)[N+](=O)[O-])c1` (stereo unspecified) registered a melting point of 147 °C.

`CC(=O)CCc1oc2ccc(NC(C)=O)cc2c1-c1ccc(C)o1` came in with a melting point of 131 to 132 °C. Then `Cn1nnc2cc(CO)ccc21`, with 94 to 96 °C. In the case of `CCOC(=O)c1c(C)n[nH]c1C`, the melting point lay within 118 to 119 °C.

The compound `CCOC(=O)C(C#N)=C(SC)SC` yielded a melting point of 70 °C. Then `NC(=O)CC[C@H](NC(=O)OCc1ccccc1)C(=O)O`, with 135 to 137 °C. Then `CCOC(=O)c1cc2ccccc2oc1=S`, with 91 °C; and `CC(=O)OC[C@@H](OC(C)=O)[C@H](OC(C)=O)[C@H](OC(C)=O)[C@@H](OC(C)=O)C(=O)CBr`, with 123 to 125 °C. Then `Nn1c(S(=O)(=O)O)nc2ccccc21`, with 252 to 253 °C; and `CCOC(=O)N1COCc2c1ccc1cc3ccc(NC)c(CO)c3nc21`, with 146 °C. Take `ClC1OCCOC1Cl` (stereo unspecified): the melting point turned out to be 30 °C. On to `NC(=S)NN=C1C(=O)Nc2ccccc21`, for which the melting point is 232 °C. Next, `Cc1ccc2c(C)cccc2c1`: -16.9 °C; `CCOC(=O)Cc1cc(C(=NNc2ccccc2)C(=O)OCC)c([N+](=O)[O-])cc1[N+](=O)[O-]`: 154 to 155 °C. Then `NC(=O)C(Br)(Br)C(N)=O`, with 205 °C; and `c1ccc(-n2nc3ccccc3n2)cc1`, with 107 °C; and `CCCc1cc(C(C)=O)c(O)cc1O`, with 99 to 101 °C.

For `NC(=S)c1ccc(F)cc1F`, the melting point worked out at 131 °C. Turning to `c1ccc(Nc2ccccn2)nc1`, the melting point came out at 90.5 °C. Then `Brc1cccc(Oc2ccc(Br)cc2Br)c1`, with under 20 °C; and `COc1ccccc1-c1nnc2n1NCS2`, with 123 °C. `CCN(C(=S)Cl)c1ccccc1` came in with a melting point of 56 to 58 °C. In turn, `CCCCCCNC` registered a melting point of -31 °C. Then `N#CC1=C(N)N2C(=C(C#N)C1c1ccccc1)Sc1ccccc12` (stereo unspecified), with 205 °C.

As for `Cc1ccc(C(=O)OC(C(=O)O)C(OC(=O)c2ccc(C)cc2)C(=O)O)cc1` (single isomer, unassigned; (+)), the melting point was in the range of 165 to 167 °C. Regarding `CCCCC(C#N)(Cn1ccnc1)c1ccccc1` (stereo unspecified), the melting point worked out at 161 °C. Next, `Brc1cc(Br)c(Oc2ccc(Br)c(Br)c2)c(Br)c1`: 86 to 87 °C. Then `CCc1cc2c(cc1C(C)=O)C(C)(C)CCC2(C)C`, with 46.5 °C; and `CCOCCC(=O)OCC`, with -75 °C.

As for `COC(=O)c1sccc1S(=O)(=O)NC(=O)Nc1nc(C)nc(OC)n1`, the melting point was found to be 176 °C.

`OCc1c(F)ccc(F)c1Cl` gave a melting point of 47 °C.

On to `O=[N+]([O-])c1cc2c3ccccc3ccc2c2ccccc12`, for which the melting point lay in the range of 210 to 213 °C. Next, `O=Cc1ccc(C#Cc2ccccc2)s1`: 91 °C. Then `Nc1cc(-c2ccccc2)no1`, with 109 °C; and `Nc1nc(N)c2nc(-c3ccccc3)c(N)nc2n1`, with 316 °C.

The record behind these values is a melting point compilation (Tetko et al.).
